Measured values taken from PubChem BioAssay (NCI).
Several values for one entry are separate records, joined by “and”; a condition that tells them apart may be missing. Equal entries are not always repeated.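 Step 1: Grow cells in 96-well plates. Step 2: Expose to compound for 48 hours at 5 concentrations. Step 3: Interpolate endpoints linearly; if unreached, use highest concentration. At the GI50, growth is halved. Definition used: TGI = concentration required for complete inhibition of growth.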

What was measured:
Assay in all cases: NCI tumour cell line growth inhibition, 48 h
DMS 114 small cell lung = system: DMS 114 small cell lung
LXFL 529 NSCLC = system: LXFL 529 NSCLC
SNB-78 CNS = system: SNB-78 CNS
DMS 273 small cell lung = system: DMS 273 small cell lung
DLD-1 colon = system: DLD-1 colon
KM20L2 colon = system: KM20L2 colon
HOP-18 NSCLC = system: HOP-18 NSCLC
M19-MEL melanoma = system: M19-MEL melanoma
SN12K1 renal = system: SN12K1 renal
P388 leukemia = system: P388 leukemia
P388/ADR leukemia = system: P388/ADR leukemia

Compound `N#CC1(CCCI)CCCC1` has a TGI (DMS 114 small cell lung) of 25300 nM, a TGI (LXFL 529 NSCLC) greater than 100000 nM and a TGI (SNB-78 CNS) of 38300 nM. The TGI (DMS 273 small cell lung) was greater than 100000 nM, the TGI (DLD-1 colon) was greater than 100000 nM and the TGI (KM20L2 colon) was greater than 100000 nM. The TGI (HOP-18 NSCLC) was 36300 nM and the TGI (M19-MEL melanoma) was 45000 nM.
With `CC[C@@]1(O)CC(OC2CC(N3CCOCC3)C(O)C(C)O2)c2c(O)c3c(c(O)c2[C@H]1O)C(=O)c1cccc(O)c1C3=O` (stereo partly specified) the GI50 (DMS 114 small cell lung) was 52.5 nM, the TGI (DMS 114 small cell lung) was 968 nM and 1080 nM and the GI50 (SN12K1 renal) was 15.3 nM and 10.2 nM. The TGI (SN12K1 renal) was 403 nM and 297 nM, the GI50 (SNB-78 CNS) was 640 nM and the TGI (SNB-78 CNS) was 2830 nM and 24300 nM. For the same compound, the GI50 (DMS 273 small cell lung) was 18 nM, the TGI (DMS 273 small cell lung) was 1100 nM and 393 nM and the GI50 (P388 leukemia) was 0.000179 nM. The TGI (P388 leukemia) was 1080 nM and 799 nM, the GI50 (P388/ADR leukemia) was 4.4 nM and the TGI (P388/ADR leukemia) was 2940 nM and 770 nM. For the same compound, the GI50 (DLD-1 colon) was 32.4 nM, the TGI (DLD-1 colon) was 2780 nM and 3200 nM and the GI50 (KM20L2 colon) was 102 nM. The TGI (KM20L2 colon) was 3840 nM and 1860 nM, the GI50 (M19-MEL melanoma) was 71.6 nM and the TGI (M19-MEL melanoma) was 981 nM and 2140 nM.
